Our source for the IC50 values is ChEMBL document CHEMBL1201862, “PubChem BioAssay data set” (2004).

Activity calls are given as the source filed them. Cut-off read from the data, not from the text of the source: actives have a measured IC50 and inactives only a lower limit.

For the assay, the target named is Envelope glycoprotein gp160 (Human immunodeficiency virus 1, UniProt Q6QLK5). The experiment in a line: cell-free HIV fusion peptide-binding blockers – biochemical, uHTS, fluorescence dequenching, […] (AID 1986).
Sequence of Envelope glycoprotein gp160 (Q6QLK5 whole entry, the tested form may be a part): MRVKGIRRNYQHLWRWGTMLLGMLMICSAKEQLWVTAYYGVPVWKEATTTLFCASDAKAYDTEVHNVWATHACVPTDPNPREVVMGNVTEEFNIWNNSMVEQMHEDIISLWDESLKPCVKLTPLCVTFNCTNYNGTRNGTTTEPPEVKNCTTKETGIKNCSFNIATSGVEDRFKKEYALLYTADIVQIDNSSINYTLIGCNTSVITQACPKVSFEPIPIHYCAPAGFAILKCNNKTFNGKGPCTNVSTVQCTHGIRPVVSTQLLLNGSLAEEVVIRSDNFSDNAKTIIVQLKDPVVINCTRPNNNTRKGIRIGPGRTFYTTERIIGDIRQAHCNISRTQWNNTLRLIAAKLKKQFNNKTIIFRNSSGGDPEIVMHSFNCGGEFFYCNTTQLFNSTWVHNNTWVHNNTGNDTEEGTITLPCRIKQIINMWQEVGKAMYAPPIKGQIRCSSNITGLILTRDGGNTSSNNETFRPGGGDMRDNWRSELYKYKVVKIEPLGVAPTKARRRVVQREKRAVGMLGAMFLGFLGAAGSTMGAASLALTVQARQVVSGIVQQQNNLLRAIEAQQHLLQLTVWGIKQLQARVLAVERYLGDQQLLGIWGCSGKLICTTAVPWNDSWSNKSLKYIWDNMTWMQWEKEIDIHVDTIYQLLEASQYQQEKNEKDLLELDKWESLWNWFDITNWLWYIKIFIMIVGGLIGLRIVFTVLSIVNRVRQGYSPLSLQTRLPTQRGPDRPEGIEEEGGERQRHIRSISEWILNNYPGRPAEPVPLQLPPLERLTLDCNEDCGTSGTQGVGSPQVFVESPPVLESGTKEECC
Regarding `COc1ccccc1/C=C1\SC(=S)N(CCC(=O)Nc2ccc(C(=O)O)c(O)c2)C1=O`, the 50% inhibitory concentration (IC50) (in general, the point on the concentration scale where inhibition reaches its midpoint) is 14.5 µM (active). The result for `O=C(O)CN1C(=O)/C(=C\c2cc(Br)ccc2OCc2ccc(Cl)cc2)SC1=S` reads 14.3 µM (active). The result for `O=C(O)CCn1cc(/C=C/C(=O)c2ccc(Cl)cc2)c(-c2ccc(Br)cc2)n1` reads 21.4 µM (active); that for `Cc1ccccc1N/N=C/c1sc(=O)n(Cc2cccc(C(=O)O)c2)c1Cl`, 15.6 µM (active).

For `COc1cc(/C=C2/C(=O)NN(c3ccc(Cl)cc3)C2=O)ccc1OC(=O)c1ccco1`, the IC50 was 11.8 µM (active).

As to `CCOC(=O)c1sc(N2C(=O)C(O)=C(C(=O)c3ccco3)C2c2cccc([N+](=O)[O-])c2)nc1C` (stereo unspecified), the concentration for half-maximal inhibition (IC50) was 19 µM (active).
